According to the supplement of paper PMC11208160:

Assay: recombinant barcode read abundance after kanamycin selection (control-corrected) (log10(CPM+1)); higher = more efficient recombination; sequences stand for … in AGTGCAGAGAAAATCGGCCAGTTTTCTCTGCCTGCAGTCCGCATGCCGT…ATTTATGCAGCGGACTGCCTTTCTCCCAAAGTGATAAACCGGACAGTATCATGGACCGGTTTTCCCGGTAATCCGTATTTGCAAGGTTGGTTTCACT; site = the 11-nt target
In short: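 Pooled oligos, each joining a target to an IS621 bridge RNA target-binding loop, were cloned and co-electroporated with a donor plasmid into E. coli. Selective plates carried chloramphenicol/ampicillin/kanamycin and 0.1 mM IPTG, while chloramphenicol/ampicillin LB agar served as control, with two replicates of each. Recombination efficiency rests on averaged, control-corrected counts per million of barcodes at recombinant junctions, shown as log10(CPM+1).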

| Sequence | recombinant barcode read abundance (log10) |
| --- | --- |
| CGAGCCCAATGGGTTCTAACCTGTTGCTGTT [CGAGCCCCTCA_LTGcore_AA_RTGcore_AA] (site CGAGCCCCTCA) (LTG core: AA, RTG core: AA) | 0.0507 |
| CGAGCCCCTTGGGTTCTAACCTGTTGCTGAT [CGAGCCCCTCA_LTGcore_CT_RTGcore_AT] (site CGAGCCCCTCA) (LTG core: CT, RTG core: AT) | 0.29 |
| CGAGCCCCTTGGGTTCTAACCTGTTGCTGCT [CGAGCCCCTCA_LTGcore_CT_RTGcore_AG] (site CGAGCCCCTCA) (LTG core: CT, RTG core: AG) | 0.203 |
| CGAGCCCCTTGGGTTCTAACCTGTTGCTGGT [CGAGCCCCTCA_LTGcore_CT_RTGcore_AC] (site CGAGCCCCTCA) (LTG core: CT, RTG core: AC) | 1.21 |
| CGAGCCCTTTGGGTTCTAACCTGTTGCTGAG [CGAGCCCCTCA_LTGcore_TT_RTGcore_CT] (site CGAGCCCCTCA) (LTG core: TT, RTG core: CT) | 0.048 |
| CGCGCCCAGTGGGTTCTAACCTGTTGCGGCT [CGCGCCCCTCC_LTGcore_AG_RTGcore_AG] (site CGCGCCCCTCC) (LTG core: AG, RTG core: AG) | 0.0334 |
| CGCGCCCATTGGGTTCTAACCTGTTGCGGAG [CGCGCCCCTCC_LTGcore_AT_RTGcore_CT] (site CGCGCCCCTCC) (LTG core: AT, RTG core: CT) | 0.0641 |
| CGCGCCCCTTGGGTTCTAACCTGTTGCGGAG [CGCGCCCCTCC_LTGcore_CT_RTGcore_CT] (site CGCGCCCCTCC) (LTG core: CT, RTG core: CT) | 0.131 |
| CGCGCCCCTTGGGTTCTAACCTGTTGCGGCA [CGCGCCCCTCC_LTGcore_CT_RTGcore_TG] (site CGCGCCCCTCC) (LTG core: CT, RTG core: TG) | 0 |
| CGCGCCCCTTGGGTTCTAACCTGTTGCGGGC [CGCGCCCCTCC_LTGcore_CT_RTGcore_GC] (site CGCGCCCCTCC) (LTG core: CT, RTG core: GC) | 0.592 |
| CGCGCCCCTTGGGTTCTAACCTGTTGCGGTA [CGCGCCCCTCC_LTGcore_CT_RTGcore_TA] (site CGCGCCCCTCC) (LTG core: CT, RTG core: TA) | 0.602 |
| CGCGCCCGATGGGTTCTAACCTGTTGCGGTC [CGCGCCCCTCC_LTGcore_GA_RTGcore_GA] (site CGCGCCCCTCC) (LTG core: GA, RTG core: GA) | 0.158 |
| CGCGCCCGGTGGGTTCTAACCTGTTGCGGAG [CGCGCCCCTCC_LTGcore_GG_RTGcore_CT] (site CGCGCCCCTCC) (LTG core: GG, RTG core: CT) | 0.557 |
| CGCGCCCTATGGGTTCTAACCTGTTGCGGAG [CGCGCCCCTCC_LTGcore_TA_RTGcore_CT] (site CGCGCCCCTCC) (LTG core: TA, RTG core: CT) | 0.334 |
| CGCGCCCTTTGGGTTCTAACCTGTTGCGGAG [CGCGCCCCTCC_LTGcore_TT_RTGcore_CT] (site CGCGCCCCTCC) (LTG core: TT, RTG core: CT) | 0.127 |
| CGGTCCCACTGGGTTCTAACCTGTTGCCAGT [CGGTCCCCTTG_LTGcore_AC_RTGcore_AC] (site CGGTCCCCTTG) (LTG core: AC, RTG core: AC) | 0.19 |
| CGGTCCCAGTGGGTTCTAACCTGTTGCCAAG [CGGTCCCCTTG_LTGcore_AG_RTGcore_CT] (site CGGTCCCCTTG) (LTG core: AG, RTG core: CT) | 0.0476 |
| CGGTCCCATTGGGTTCTAACCTGTTGCCAAG [CGGTCCCCTTG_LTGcore_AT_RTGcore_CT] (site CGGTCCCCTTG) (LTG core: AT, RTG core: CT) | 1.07 |
| CGGTCCCCCTGGGTTCTAACCTGTTGCCAAG [CGGTCCCCTTG_LTGcore_CC_RTGcore_CT] (site CGGTCCCCTTG) (LTG core: CC, RTG core: CT) | 0.189 |
| CGGTCCCCTTGGGTTCTAACCTGTTGCCATG [CGGTCCCCTTG_LTGcore_CT_RTGcore_CA] (site CGGTCCCCTTG) (LTG core: CT, RTG core: CA) | 1.6 |
| CGGTCCCGTTGGGTTCTAACCTGTTGCCAAC [CGGTCCCCTTG_LTGcore_GT_RTGcore_GT] (site CGGTCCCCTTG) (LTG core: GT, RTG core: GT) | 0.229 |
| CGGTCCCTCTGGGTTCTAACCTGTTGCCAAG [CGGTCCCCTTG_LTGcore_TC_RTGcore_CT] (site CGGTCCCCTTG) (LTG core: TC, RTG core: CT) | 0.355 |
| CGGTCCCTCTGGGTTCTAACCTGTTGCCAGA [CGGTCCCCTTG_LTGcore_TC_RTGcore_TC] (site CGGTCCCCTTG) (LTG core: TC, RTG core: TC) | 0.174 |

| Sequence | recombinant barcode read abundance (log10) |
| --- | --- |
| CGGTCCCTGTGGGTTCTAACCTGTTGCCACA [CGGTCCCCTTG_LTGcore_TG_RTGcore_TG] (site CGGTCCCCTTG) (LTG core: TG, RTG core: TG) | 0.175 |
| CGGTCCCTTTGGGTTCTAACCTGTTGCCAAG [CGGTCCCCTTG_LTGcore_TT_RTGcore_CT] (site CGGTCCCCTTG) (LTG core: TT, RTG core: CT) | 0.0132 |
| GAGCCCACTTGGGTTCTAACCTGTTGCCTAT [GAGCCCACTAG_LTGcore_CT_RTGcore_AT] (site GAGCCCACTAG) (LTG core: CT, RTG core: AT) | 0.41 |
| GAGCCCAGCTGGGTTCTAACCTGTTGCCTGC [GAGCCCACTAG_LTGcore_GC_RTGcore_GC] (site GAGCCCACTAG) (LTG core: GC, RTG core: GC) | 0.0674 |
| GAGCCCAGGTGGGTTCTAACCTGTTGCCTAG [GAGCCCACTAG_LTGcore_GG_RTGcore_CT] (site GAGCCCACTAG) (LTG core: GG, RTG core: CT) | 0.181 |
| GAGCCCAGTTGGGTTCTAACCTGTTGCCTAG [GAGCCCACTAG_LTGcore_GT_RTGcore_CT] (site GAGCCCACTAG) (LTG core: GT, RTG core: CT) | 0.0941 |
| GAGCCCATATGGGTTCTAACCTGTTGCCTTA [GAGCCCACTAG_LTGcore_TA_RTGcore_TA] (site GAGCCCACTAG) (LTG core: TA, RTG core: TA) | 0.338 |
| GAGCCCATCTGGGTTCTAACCTGTTGCCTAG [GAGCCCACTAG_LTGcore_TC_RTGcore_CT] (site GAGCCCACTAG) (LTG core: TC, RTG core: CT) | 0.102 |
| GAGCCCATTTGGGTTCTAACCTGTTGCCTAA [GAGCCCACTAG_LTGcore_TT_RTGcore_TT] (site GAGCCCACTAG) (LTG core: TT, RTG core: TT) | 0.178 |
| GAGGCCTCCTGGGTTCTAACCTGTTGCCAGG [GAGGCCTCTTG_LTGcore_CC_RTGcore_CC] (site GAGGCCTCTTG) (LTG core: CC, RTG core: CC) | 0.215 |
| GAGGCCTCTTGGGTTCTAACCTGTTGCCAAA [GAGGCCTCTTG_LTGcore_CT_RTGcore_TT] (site GAGGCCTCTTG) (LTG core: CT, RTG core: TT) | 0.822 |
| GAGGCCTCTTGGGTTCTAACCTGTTGCCAAT [GAGGCCTCTTG_LTGcore_CT_RTGcore_AT] (site GAGGCCTCTTG) (LTG core: CT, RTG core: AT) | 0 |
| GAGGCCTCTTGGGTTCTAACCTGTTGCCACC [GAGGCCTCTTG_LTGcore_CT_RTGcore_GG] (site GAGGCCTCTTG) (LTG core: CT, RTG core: GG) | 0.236 |
| GAGGCCTCTTGGGTTCTAACCTGTTGCCACG [GAGGCCTCTTG_LTGcore_CT_RTGcore_CG] (site GAGGCCTCTTG) (LTG core: CT, RTG core: CG) | 0.128 |
| GAGGCCTCTTGGGTTCTAACCTGTTGCCATT [GAGGCCTCTTG_LTGcore_CT_RTGcore_AA] (site GAGGCCTCTTG) (LTG core: CT, RTG core: AA) | 0.0215 |
| GAGGCCTTTTGGGTTCTAACCTGTTGCCAAG [GAGGCCTCTTG_LTGcore_TT_RTGcore_CT] (site GAGGCCTCTTG) (LTG core: TT, RTG core: CT) | 0.0682 |
| GAGTCCAAGTGGGTTCTAACCTGTTGCGTCT [GAGTCCACTAC_LTGcore_AG_RTGcore_AG] (site GAGTCCACTAC) (LTG core: AG, RTG core: AG) | 0.0337 |
| GAGTCCACCTGGGTTCTAACCTGTTGCGTAG [GAGTCCACTAC_LTGcore_CC_RTGcore_CT] (site GAGTCCACTAC) (LTG core: CC, RTG core: CT) | 0.172 |
| GAGTCCACGTGGGTTCTAACCTGTTGCGTCG [GAGTCCACTAC_LTGcore_CG_RTGcore_CG] (site GAGTCCACTAC) (LTG core: CG, RTG core: CG) | 0.405 |
| GAGTCCACTTGGGTTCTAACCTGTTGCGTCT [GAGTCCACTAC_LTGcore_CT_RTGcore_AG] (site GAGTCCACTAC) (LTG core: CT, RTG core: AG) | 0 |
| GAGTCCACTTGGGTTCTAACCTGTTGCGTGT [GAGTCCACTAC_LTGcore_CT_RTGcore_AC] (site GAGTCCACTAC) (LTG core: CT, RTG core: AC) | 0.0606 |
| GAGTCCACTTGGGTTCTAACCTGTTGCGTTG [GAGTCCACTAC_LTGcore_CT_RTGcore_CA] (site GAGTCCACTAC) (LTG core: CT, RTG core: CA) | 0 |
